From ChEMBL document CHEMBL5252551, “A hit deconstruction approach for the discovery of fetal hemoglobin inducers” (Bioorg Med Chem Lett, 2018)
pEC50: −log10 of the molar value. Converted amounts (≈) assume the structure as drawn. One block for each compound: values may come before it. The source made the active and inactive calls. The calls are words filed in the database; no cut-off is given here.

Experiments:
[1] = Induction of HbF production in human erythroid progenitor cells measured after 3 days by ELISA assay; assay type: functional, cell-based; conditions: Erythroid progenitor cell, 72 h; for EC50: read-out: pEC50 (converted)
[2] = Solubility of the compound in FaSSIF; assay type: ADME
[3] = (§1) Induction of HbF production in human erythroid progenitor cells at upto 33 uM measured after 3 days by ELISA assay; assay type: functional, cell-based; conditions: Erythroid progenitor cell, 72 h
[4] = Genotoxicity in Salmonella typhimurium in presence of S9 fraction by Ames test; assay type: toxicity, subcellular; conditions: salmonella enterica subsp. enterica serovar typhimurium
[5] = Genotoxicity in Salmonella typhimurium in absence of S9 fraction by Ames test; assay type: toxicity; conditions: salmonella enterica subsp. enterica serovar typhimurium
[6] = Solubility of the compound in simulated intestinal fluid measured after 4 hrs; assay type: ADME
[7] = Cmax in Sprague-Dawley rat at 5 mg/kg,po; assay type: ADME, organism-based; parameters: dose 5 mg/kg, route po; conditions: in vivo
[8] = Half life in Sprague-Dawley rat at 5 mg/kg,po; assay type: ADME, organism-based; conditions: in vivo
[9] = Dose normalized AUC in Sprague-Dawley rat at 5 mg/kg,po; assay type: ADME, organism-based; conditions: in vivo
[10] = Oral bioavailability in Sprague-Dawley rat at 5 mg/kg; assay type: ADME, organism-based; conditions: in vivo
[11] = Cmax in Sprague-Dawley rat at 10 mg/kg,po; assay type: ADME, organism-based; parameters: dose 10 mg/kg, route po; conditions: in vivo
[12] = Half life in Sprague-Dawley rat at 10 mg/kg,po; assay type: ADME, organism-based; conditions: in vivo
[13] = Dose normalized AUC in Sprague-Dawley rat at 10 mg/kg,po; assay type: ADME, organism-based; conditions: in vivo
[14] = Oral bioavailability in Sprague-Dawley rat at 10 mg/kg; assay type: ADME, organism-based; conditions: in vivo
[15] = Cmax in Sprague-Dawley rat at 1 mg/kg,iv; assay type: ADME, organism-based; parameters: dose 1 mg/kg, route iv; conditions: in vivo
[16] = Volume of distribution at steady state in Sprague-Dawley rat at 5 mg/kg,po or 1 mg/kg,iv; assay type: ADME, organism-based; conditions: in vivo
[17] = Half life in Sprague-Dawley rat at 1 mg/kg, iv; assay type: ADME, organism-based; conditions: in vivo
[18] = Dose normalized AUC in Sprague-Dawley rat at 1 mg/kg, iv; assay type: ADME, organism-based; conditions: in vivo
[19] = Cmax in Sprague-Dawley rat at 100 mg/kg,po; assay type: ADME, organism-based; parameters: dose 100 mg/kg, route po; conditions: in vivo
[20] = Half life in Sprague-Dawley rat at 100 mg/kg,po; assay type: ADME, organism-based; conditions: in vivo
[21] = Dose normalized AUC in Sprague-Dawley rat at 100 mg/kg,po; assay type: ADME, organism-based; conditions: in vivo
[22] = Oral bioavailability in Sprague-Dawley rat at 100 mg/kg; assay type: ADME, organism-based; conditions: in vivo
[23] = Oral bioavailability in Sprague-Dawley rat at 28 mg/kg; assay type: ADME, organism-based; conditions: in vivo
[24] = Dose normalized AUC in Sprague-Dawley rat at 28 mg/kg,po; assay type: ADME, organism-based; conditions: in vivo
[25] = Half life in Sprague-Dawley rat at 28 mg/kg,po; assay type: ADME, organism-based; conditions: in vivo
[26] = Cmax in Sprague-Dawley rat at 28 mg/kg,po; assay type: ADME, organism-based; parameters: dose 28 mg/kg, route po; conditions: in vivo
[27] = tested on: Erythroid progenitor cell; assay: as §1; assay type: functional, cell-based; conditions: time 3.0 day

Compound: O=C(Nc1cccn(Cc2ccccc2)c1=O)c1cc(F)c2c(c1)B(O)OC2
EC50 [1]: 2140 nM
solubility [2]: 8 µg/mL (≈ 0.0212 mM)

Compound: O=C(Nc1cccn(Cc2ccccc2)c1=O)c1cc2c(cc1F)COB2O
EC50 [1]: > 31600 nM

Compound: O=C(Nc1cccn(Cc2ccccc2)c1=O)c1ccc2c(c1)B(O)OC2
EC50 [1]: 1020 nM
solubility [2]: 3 µg/mL (≈ 0.00833 mM)
Activity [4]: Non-Toxic
Activity [5]: Non-Toxic
solubility at 4 h [6]: 3 µg/mL (≈ 0.00833 mM)

Compound: CC(C)(C)OC(=O)NCc1ccc(S(=O)(=O)NC(=O)CCc2ccc3c(c2)B(O)OC3)cc1
pEC50 [3]: 6.04

Compound: CCC(C(=O)O)c1ccc2c(c1)B(O)OC2 (racemic)
EC50 [1]: 50.1 nM
solubility [2]: 850 µg/mL (≈ 3.86 mM)

Compound: O=C(CCc1ccc2c(c1)B(O)OC2)NS(=O)(=O)c1ccccc1
EC50 [1]: 832 nM
solubility [2]: > 1000 µg/mL

Compound: CC(C(=O)NS(=O)(=O)C1CC1)c1ccc2c(c1)B(O)OC2 (racemic)
EC50 [1]: 26.9 nM
solubility [2]: > 1000 µg/mL

Compound: O=C(O)CNC(=O)c1ccc2c(c1)B(O)OC2
EC50 [1]: > 31600 nM

Compound: O=C(Nc1ccc2c(c1)B(O)OC2)c1cccn(Cc2ccccc2)c1=O
Cmax [15]: 792 ng/mL
Cmax [7]: 1420 ng/mL
Vdss [16]: 1.7 L/kg
half-life [17]: 6.4 h
half-life [8]: 4.5 h
AUC/dose [18]: 4210 kg·ng·h/mL/mg
AUC/dose [9]: 1120 kg·ng·h/mL/mg
bioavailability [10]: 27%

Compound: COc1cc2c(cc1C(=O)NS(=O)(=O)c1ccccc1)B(O)OC2
pEC50 [3]: < 4.50

Compound: C[C@H](C(=O)O)c1ccc2c(c1)B(O)OC2
Cmax [7]: 1730 ng/mL
half-life [8]: 1.14 h
AUC/dose [9]: 451 kg·ng·h/mL/mg
bioavailability [10]: 88%
EC50 [1]: 871 nM
solubility [2]: 950 µg/mL (≈ 4.61 mM)
Cmax [19]: 47200 ng/mL
half-life [20]: 4.53 h
AUC/dose [21]: 683 kg·ng·h/mL/mg
bioavailability [22]: > 100%

Compound: O=C(Cc1ccc2c(c1)B(O)OC2)NS(=O)(=O)c1ccccc1
bioavailability [23]: > 100%
AUC/dose [24]: 2120 kg·ng·h/mL/mg
half-life [25]: 3.88 h
Cmax [26]: 53000 ng/mL
Cmax [7]: 1290 ng/mL
half-life [8]: 7.29 h
AUC/dose [9]: 560 kg·ng·h/mL/mg
bioavailability [10]: 28%
EC50 [1]: 64.6 nM
solubility [2]: 900 µg/mL (≈ 2.72 mM)

Compound: C[C@@H](C(=O)O)c1ccc2c(c1)B(O)OC2
Cmax [7]: 1860 ng/mL
half-life [8]: 16.6 h
AUC/dose [9]: 429 kg·ng·h/mL/mg
bioavailability [10]: 83%
pEC50 ([1]; read-out: EC50): 7.40
EC50 [1]: 39.8 nM
solubility [2]: > 1000 µg/mL
Cmax [11]: 2710 ng/mL
half-life [12]: 3.03 h
AUC/dose [13]: 283 kg·ng·h/mL/mg
bioavailability [14]: 55%

Compound: O=C(Cc1ccc2c(c1)B(O)OC2)NS(=O)(=O)C1CC1
EC50 [1]: 18.2 nM
solubility [2]: 700 µg/mL (≈ 2.37 mM)

Compound: OB1OCc2ccc(Oc3nnn[nH]3)c(F)c21
EC50 [1]: 724 nM
solubility [2]: > 1000 µg/mL

Compound: O=C(Nc1cccc(B(O)O)c1)c1cccn(Cc2ccccc2)c1=O
Activity [27]: inactive
EC50 [1]: > 31600 nM

Compound: OB1OCc2ccc(Cc3nnn[nH]3)cc21
Cmax [7]: 283 ng/mL
half-life [8]: 3.67 h
AUC/dose [9]: 103 kg·ng·h/mL/mg
bioavailability [10]: 24%
EC50 [1]: 9.12 nM
solubility [2]: > 1000 µg/mL

Compound: Cc1ccc(NC(=O)c2cccn(Cc3ccccc3)c2=O)cc1B(O)O
Activity [27]: inactive
EC50 [1]: > 31600 nM

Compound: O=C(O)c1ccc2c(c1)B(O)OC2
EC50 [1]: 9330 nM
solubility [2]: 950 µg/mL (≈ 5.34 mM)

Compound: CC(C(=O)O)c1ccc2c(c1)B(O)OC2 (racemic)
EC50 [1]: 47.9 nM
solubility [2]: > 1000 µg/mL

Other lines, results leading:

pEC50 [3]: 5.22
Compound: NCc1ccc(S(=O)(=O)NC(=O)CCc2ccc3c(c2)B(O)OC3)cc1

Cmax [7]: 1180 ng/mL
half-life [8]: 1.05 h
AUC/dose [9]: 612 kg·ng·h/mL/mg
bioavailability [10]: 68%
EC50 [1]: 26.3 nM
solubility [2]: 930 µg/mL (≈ 3.81 mM)
Cmax [11]: 3880 ng/mL
half-life [12]: 1.53 h
AUC/dose [13]: 1049 kg·ng·h/mL/mg
bioavailability [14]: > 100%
Compound: CC(C)(c1ccc2c(c1)B(O)OC2)c1nnn[nH]1

EC50 [1]: 15.1 nM
solubility [2]: 880 µg/mL (≈ 2.72 mM)
Compound: O=C(Cc1ccc2c(c1)B(O)OC2)NS(=O)(=O)C1CCCC1

EC50 [1]: > 31600 nM
Compound: O=C(CNC(=O)c1ccc2c(c1)B(O)OC2)NCc1ccccc1

EC50 [1]: > 31600 nM
Compound: NC(=O)CNC(=O)c1ccc2c(c1)B(O)OC2

EC50 [1]: 11500 nM
solubility [2]: > 1000 µg/mL
Compound: O=C(O)c1cccn1-c1ccc2c(c1)B(O)OC2

EC50 [1]: 110 nM
solubility [2]: 980 µg/mL (≈ 3.09 mM)
Compound: O=C(NS(=O)(=O)c1ccc2c(c1)B(O)OC2)c1ccccc1

EC50 [1]: 115 nM
solubility [2]: > 1000 µg/mL
Compound: CC(C)(C(=O)O)c1ccc2c(c1)B(O)OC2

EC50 [1]: 1120 nM
solubility [2]: > 1000 µg/mL
Compound: O=C(O)CCc1ccc2c(c1)B(O)OC2

EC50 [1]: 91.2 nM
solubility [2]: 4 µg/mL (≈ 0.0106 mM)
Compound: O=C(Nc1cccn(Cc2ccccc2)c1=O)c1ccc2c(c1F)B(O)OC2

EC50 [1]: 129 nM
solubility [2]: > 1000 µg/mL
Compound: OB1OCc2ccc(Oc3nnn[nH]3)cc21

EC50 [1]: 1070 nM
solubility [2]: > 1000 µg/mL
Compound: O=C(O)Cc1ccc2c(c1)B(O)OC2

EC50 [1]: 316 nM
solubility [2]: 510 µg/mL (≈ 2.1 mM)
Compound: O=C(O)c1ccn(-c2ccc3c(c2)B(O)OC3)c1

EC50 [1]: 646 nM
solubility [2]: > 1000 µg/mL
Compound: CC(C)C(C(=O)O)c1ccc2c(c1)B(O)OC2 (racemic)

Cmax [7]: 71 ng/mL
half-life [8]: 1.3 h
AUC/dose [9]: 38 kg·ng·h/mL/mg
bioavailability [10]: 13%
EC50 [1]: 275 nM
solubility [2]: > 1000 µg/mL
Cmax [19]: 4900 ng/mL
half-life [20]: 3.54 h
AUC/dose [21]: 184 kg·ng·h/mL/mg
bioavailability [22]: 62%
Compound: OB1OCc2ccc(OCc3nnn[nH]3)cc21

EC50 [1]: > 31600 nM
Compound: NC(=O)c1ccc2c(c1)B(O)OC2
